The values below come from ChEMBL document CHEMBL3046049, “Protoporphyrinogen-IX Oxidase Inhibition by N-(2, 4, 5-Trisubstituted phenyl)-3, 4, 5, 6-tetrahydrophthalimides” (J Pestic Sci, 1997).

SMILES strings stand for the structures.

The subject of one test is Scenedesmus acutus. The experiment in a line: Inhibition of light-induced ethane formation in Scenedesmus acutus after 20 hr. The class given is functional, organism-based. The settings on record: read-out: pI50 (converted).
In test [1] the target is T1, Protoporphyrinogen IX oxidase (Zea mays, UniProt Q9FYV8).
T1 sequence (Q9FYV8 whole entry): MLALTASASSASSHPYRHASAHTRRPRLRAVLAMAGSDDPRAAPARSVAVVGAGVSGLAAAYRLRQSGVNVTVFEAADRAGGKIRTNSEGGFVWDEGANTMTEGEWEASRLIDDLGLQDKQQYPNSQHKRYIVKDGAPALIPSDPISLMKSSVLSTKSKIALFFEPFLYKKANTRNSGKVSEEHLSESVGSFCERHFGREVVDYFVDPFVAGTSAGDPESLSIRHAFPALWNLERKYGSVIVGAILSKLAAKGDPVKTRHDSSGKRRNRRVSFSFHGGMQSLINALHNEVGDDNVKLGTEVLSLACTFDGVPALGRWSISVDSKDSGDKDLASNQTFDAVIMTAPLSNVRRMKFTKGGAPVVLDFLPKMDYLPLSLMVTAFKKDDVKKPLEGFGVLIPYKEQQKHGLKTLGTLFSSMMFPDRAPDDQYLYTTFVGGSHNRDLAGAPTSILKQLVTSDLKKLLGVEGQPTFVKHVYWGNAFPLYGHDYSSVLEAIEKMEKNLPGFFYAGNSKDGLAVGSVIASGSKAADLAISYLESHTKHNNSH
Put plainly: Inhibition of protoporphyrinogen IX oxidase in Zea mays (maize) seed after 5 min by Dixon plot analysis. Particulars: read-out: pI50 (converted).

As for `C#CCN1C(=O)COc2cc(F)c(N3C(=O)C4=C(CCCC4)C3=O)cc21` [FLUMIOXAZIN], the IC50 with Scenedesmus acutus is 316 nM.
As for `C#CCOc1cc(N2C(=O)C3=C(CCCC3)C2=O)c(F)cc1Cl`, the IC50 in the test with Scenedesmus acutus was 126 nM; in test [1] it was 2 nM.
Taken in the same sequence, the figures for `O=C1C2=C(CCCC2)C(=O)N1c1ccccc1` were 10000 nM and 1580 nM.
In the same order, the values of `C#CC(C)Oc1cc(N2C(=O)C3=C(CCCC3)C2=O)c(F)cc1Cl` (configuration not stated) [FLUMIPROPYN] are 105 nM and 1 nM.
In the same order, the values of `CC(C)OC(=O)c1cc(N2C(=O)C3=C(CCCC3)C2=O)c(F)cc1Cl` are 79.4 nM and 1.26 nM.
Consider `O=C1C2=C(CCCC2)C(=O)N1c1ccc(Cl)cc1F`, for which the IC50 in the test with Scenedesmus acutus is 251 nM; in test [1] it was 3.98 nM.
For `C#CCOc1cc(-n2nc3c(c2Cl)CCCC3)c(F)cc1Cl`, the IC50 in test [1] was 1 nM.
As to `C#CCOc1cc(N2C(=O)C3=C(CCCC3)C2=O)ccc1Cl`, the results for the IC50 (with Scenedesmus acutus; in test [1]) were 501 nM and 0.398 nM, respectively.
In the same order, the values of `CC(C)=C1OC(=O)N(c2cc(OC3CCCC3)c(Cl)cc2F)C1=O` [PENTOXAZONE] are 631 nM and 5.25 nM.
Taken in the same sequence, the figures for `CC(C)OC(=O)c1cc(N2C(=O)C3=C(CCCC3)C2=O)ccc1Cl` were 200 nM and 1 nM.
As for `CCCCCOC(=O)COc1cc(N2C(=O)C3=C(CCCC3)C2=O)c(F)cc1Cl` [FLUMICIORAC-PENTYL], the IC50 in test [1] is 1.1 nM.
Take `O=C1C2=C(CCCC2)C(=O)N1c1ccc(Cl)cc1` [CHLOROPHTHALIUM]: the IC50 in the test on Scenedesmus acutus was 1000 nM; in test [1], 25.1 nM.
Taken in the same sequence, the figures for `COC(=O)CSc1cc(/N=c2\sc(=O)n3n2CCCC3)c(F)cc1Cl` [FLUTHIACETMETHYL] were 955 nM and 47.9 nM.
In the case of `C#CCN1C(=O)COc2ccc(N3C(=O)C4=C(CCCC4)C3=O)cc21`, the IC50 in the test with Scenedesmus acutus was 631 nM; in test [1], 1 nM.
Taken in the same sequence, the figures for `O=C1C2=C(CCCC2)C(=O)N1c1ccccc1F` were 10000 nM and 2510 nM.
